Laboratory results from patent US20130017537A1, “METHOD OF IN-VITRO IMMUNOASSAY” (BASF Beauty Care Solutions France S.A.S., priority 2011, published 2013).

Test system: type V collagen in the ECM
Experiment: Influence of the lysis solution on the assay of type V collagen in the ECM
Format: cell-based, human
Settings: repeat experiment, Table 3.2
Description: Thus, normal human fibroblasts obtained from abdominal biopsies were seeded in a 96-well plate and cultured in a defined medium (FGM) to 100% confluency.
After 48 hours of culture postconfluency at 37° C. under 0.5% CO2, the culture medium was collected.
The time of application of the lysis solution tested was 10 minutes at room temperature and with stirring.
The collagen V in the ECM was assayed directly on the ECM by using an anticollagen V antibody. A secondary antibody conjugated to europium was used with a detection reagent and the fluorescence was measured. (Delfia® kit—Perkin Elmer).
The experiment was repeated and the lysis solutions tested were as follows: • solution according to the invention NH4OH: 110 μl of an ammonium hydroxide solution at concentrations between 200 μM and 2 M. • Solution of monoethylamine at 20 Mm • Solution of diethylamine at 20 mM • Solution of triethylamine at 20 mM

SMILES: CCN(CC)CC [Triethylamine, triethylamine]
- Ratio: Coll/DNA % (NH4OH = 100): 21.13%
